# Measurements: publication PMC12467033, “Exploring the Inhibitory Potential of Six Porphyrin Compounds Against α-Amylase and α-Glucosidase Linked to Diabetes” (Biomolecules, 2025)
# Values joined by “and” are separate entries in the source; they are usually repeats but may differ in a detail not shown here. Equal values may be shown once. Read-outs that look alike come from different tables or passages of the source.
# Experiments:
# α-amylase [1] = target: T1, α-amylase (Sus scrofa, UniProt P00690); assay: Fluorescence quenching, binding and thermodynamics with α-amylase; conditions: for quenching mechanism of α-amylase fluorescence: Stern–Volmer plots; for quenching mechanism of α-amylase fluorescence / ΔH^0 / ΔS^0: 298–310 K; for ΔH^0 / ΔS^0: Van’t Hoff
# T1 sequence (P00690 16-511): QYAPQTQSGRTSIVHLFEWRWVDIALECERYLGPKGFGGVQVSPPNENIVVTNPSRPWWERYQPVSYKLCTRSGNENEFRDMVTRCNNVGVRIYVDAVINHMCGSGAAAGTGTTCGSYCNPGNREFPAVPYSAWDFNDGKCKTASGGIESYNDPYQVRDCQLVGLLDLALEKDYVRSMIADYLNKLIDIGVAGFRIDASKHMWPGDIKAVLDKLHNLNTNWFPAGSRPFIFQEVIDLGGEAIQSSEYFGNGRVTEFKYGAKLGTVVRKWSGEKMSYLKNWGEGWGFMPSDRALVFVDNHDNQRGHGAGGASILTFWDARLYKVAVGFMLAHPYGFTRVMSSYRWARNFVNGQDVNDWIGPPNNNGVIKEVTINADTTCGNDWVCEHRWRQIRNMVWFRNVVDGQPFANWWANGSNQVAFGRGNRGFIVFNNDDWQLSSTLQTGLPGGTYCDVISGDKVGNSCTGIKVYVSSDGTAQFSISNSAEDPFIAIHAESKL
# Source text: In the α-amylase experiment, a series of porphyrins and amylase (200 U/L) were mixed in a volume ratio of 1:1.
# (§1) The Stern–Volmer equation [35] was adopted to determine the quenching mechanisms between six porphyrin compounds and both enzymes in the experimental group, with Formula (6):(6) F0/F=1+Ksv[Q]=1+Kqτ0[Q]
# (§2) The Stern–Volmer equation was adapted based on experimental data to more accurately characterize the quenching behavior [36], with Formula (7):(7) F0/F=e^Ksv[Q]=e^Kqτ0[Q]
# (§3) In the formula, the fluorescence quenching ratio was calculated as F0/F, where F0 corresponds to the emission intensity of pure α-amylase solution (control) and F denotes the intensity measured after the incremental addition of porphyrin ligands. KSV and Kq denote the Stern–Volmer quenching constant and the bimolecular quenching rate constant, respectively, τ0 (10^−8 s) is the average fluorescence lifetime of the fluorophore in the absence of quencher, and [Q] indicates the concentration of porphyrin compounds.
# (§4) Due to the presence of an internal filtration effect, a decrease in the fluorescence intensity of the system may occur. Therefore, all fluorescence data were corrected using Formula (8) to eliminate the internal filtration effect.(8) Fcor=Fobse^(Aex+Aem)/2
# (§5) The evaluation of the interaction forces between porphyrin compounds and the two enzymes can be achieved by calculating thermodynamic parameters. When both ΔH^0 and ΔS^0 are positive, the predominant interaction force is hydrophobic. When both ΔH^0 and ΔS^0 are negative, the main forces are hydrogen bonding and van der Waals forces. When ΔH^0 < 0 and ΔS^0 > 0, the primary interaction is electrostatic attraction.
# (§6) The thermodynamic parameters were calculated using Formulas (9) and (10), and then the Van’t Hoff plot for the interactions between the porphyrin compounds and the two enzymes was generated by plotting lnKa on the Y-axis versus 1/T on the X-axis.(9) lnKa=−ΔH^0/RT+ΔS^0/R (10) ΔG^0=ΔH^0−TΔS^0=−RTlnKa
# α-amylase [2] = target: T1, α-amylase; assay: Three-dimensional fluorescence spectroscopy of α-amylase complexes; conditions: 298 K; TAPP 2.5, THPP 10, TCPP 10, Fe–TCPP 12.5, Ni–TCPP 17.5, Cu–TCPP 10 μg/mL
# α-amylase [3] = target: T1, α-amylase; assay: FTIR secondary structure analysis of α-AMY complexes; conditions: enzyme–porphyrin molar ratio 1:2, amide I band
# Source text: A molar ratio of 1:2 (α-amylase/α-glucosidase)–porphyrin solution was placed in a cryocentrifugal concentrator and the dried solid sample was mixed with dry KBr and measured using a Nicolet IS-50 FTIR Spectrometer (ThermoFisher, Waltham, MA, USA) with a scanning range of 4000–400 cm^−1 and a resolution of 4 cm^−1. The overlapping peaks in the amide I band (1700–1600 cm^−1) were further analyzed into multiple feature sub-peaks, and quantitative analysis of the relative content of various secondary structures in proteins using curve fitting methods was performed.
# α-glucosidase [4] = target: T2, α-glucosidase (Saccharomyces cerevisiae, UniProt P53341); format: biochemical; conditions: for type of inhibition of α-glucosidase: Lineweaver–Burk plots; for reversibility of inhibition of α-glucosidase: enzyme 100–400 U/L, substrate 5 mmol/L
# Source text: In the experiment, the concentration of the fixed substrate Gal-G2-α-CNP/pNPG solution was 5 mmol/L, and the concentrations of the two enzymes (100, 200, 300, 400 U/L) were used to determine the effect of different concentrations of porphyrins on enzyme activity. The concentration of the enzyme was 200 U/L, and the concentration of the substrate Gal-G2-α-CNP/pNPG solution (2.5, 5, 7.5, 10 mmol/L) was used to determine the effect of different concentrations of porphyrins on the enzyme-catalyzed substrate activity.
# Upon identifying the type of inhibition, the kinetic equations vary for different inhibition types.
# In the formula, v, Vmax, Km, Ki, and Kis represent the reaction rate, maximum reaction rate, Michaelis constant, and free enzyme inhibition constant, respectively, and the binding enzyme inhibition constant. [S] denotes the substrate concentration. [I] denotes the inhibitor concentration.
# α-glucosidase [5] = target: T2, α-glucosidase; assay: Fluorescence quenching, binding and thermodynamics with α-glucosidase; conditions: for binding constants K: 310 K; for quenching mechanism of α-glucosidase fluorescence: Stern–Volmer plots; for quenching mechanism of α-glucosidase fluorescence / ΔH^0 / ΔS^0: 298–310 K; for ΔH^0 / ΔS^0: Van’t Hoff
# Method: In the α-amylase experiment, a series of porphyrins and amylase (200 U/L) were mixed in a volume ratio of 1:1. In the α-glucosidase experiment, the glucosidase concentration was 400 U/L, mixed in a volume ratio of 1:1; the samples were maintained at three different temperatures (298, 304, and 310 K) for 30 min, with excitation at 280 nm and emission scanning from 300 to 500 nm.
# as §1, §2, §3, §4, §5, §6
# T2 sequence (P53341 whole entry): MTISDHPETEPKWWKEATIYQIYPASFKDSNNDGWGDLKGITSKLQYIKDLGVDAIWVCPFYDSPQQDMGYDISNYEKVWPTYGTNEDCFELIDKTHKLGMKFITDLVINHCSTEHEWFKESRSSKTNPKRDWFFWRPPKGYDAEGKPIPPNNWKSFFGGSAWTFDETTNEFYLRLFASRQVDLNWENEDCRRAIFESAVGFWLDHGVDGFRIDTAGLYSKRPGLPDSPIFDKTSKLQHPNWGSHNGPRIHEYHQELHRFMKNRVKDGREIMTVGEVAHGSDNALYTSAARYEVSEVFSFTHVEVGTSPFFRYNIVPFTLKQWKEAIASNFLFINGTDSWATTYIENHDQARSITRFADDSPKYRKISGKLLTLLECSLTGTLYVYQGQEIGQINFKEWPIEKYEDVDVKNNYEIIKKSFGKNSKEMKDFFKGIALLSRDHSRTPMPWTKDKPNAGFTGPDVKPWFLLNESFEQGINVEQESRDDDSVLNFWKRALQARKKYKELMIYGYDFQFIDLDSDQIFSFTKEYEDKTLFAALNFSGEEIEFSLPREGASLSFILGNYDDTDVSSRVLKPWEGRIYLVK
compound,measurement,setting,value
Oc1ccc(-c2c3nc(c(-c4ccc(O)cc4)c4ccc([nH]4)c(-c4ccc(O)cc4)c4nc(c(-c5ccc(O)cc5)c5ccc2[nH]5)C=C4)C=C3)cc1 [THPP],quenching mechanism of α-amylase fluorescence,α-amylase [1],pure static quenching
same,Kq,α-amylase [1]; T 298 K,8.90 ± 0.06 ×10^12 L/mol/s
same,Ksv,α-amylase [1]; T 298 K,8.90 ± 0.06 ×10^4 L/mol
same,n (number of binding sites),α-amylase [1]; T 298 K,1.19
same,ΔG^0,α-amylase [1]; T 298 K,-7.844 ± 0.019 kcal/mol
same,Kq,α-amylase [1]; T 304 K,8.20 ± 0.02 ×10^12 L/mol/s
same,Ksv,α-amylase [1]; T 304 K,8.20 ± 0.02 ×10^4 L/mol
same,n (number of binding sites),α-amylase [1]; T 304 K,1.16
same,ΔG^0,α-amylase [1]; T 304 K,-7.737 ± 0.019 kcal/mol
same,Kq,α-amylase [1]; T 310 K,7.64 ± 0.07 ×10^12 L/mol/s
same,Ksv,α-amylase [1]; T 310 K,7.64 ± 0.07 ×10^4 L/mol
same,n (number of binding sites),α-amylase [1]; T 310 K,1.12
same,ΔG^0,α-amylase [1]; T 310 K,-7.646 ± 0.017 kcal/mol
same,ΔH^0,α-amylase [1],-12.73 ± 0.012 kcal/mol
same,ΔS^0,α-amylase [1],−68.61 ± 0.06 J/mol/k
same,Peak 1 Fluorescence Intensity,α-amylase [2],297.5
same,Peak 2 Fluorescence Intensity,α-amylase [2],32.69
same,Random Coil,α-amylase [3],17.71 ± 0.07%
same,α-Helix,α-amylase [3],22.24 ± 0.06%
same,β-Antiparallel,α-amylase [3],13.37 ± 0.03%
same,β-Sheet,α-amylase [3],12.92 ± 0.05%
same,β-Turn,α-amylase [3],33.76 ± 0.08%
same,Vmax,α-glucosidase [4]; C 1 μg/mL,0.1528 ± 0.0020 ΔOD/min
same,Vmax,α-glucosidase [4]; C 2.5 μg/mL,0.1013 ± 0.0035 ΔOD/min
same,Vmax,α-glucosidase [4]; C 5 μg/mL,0.0649 ± 0.0019 ΔOD/min
same,Vmax,α-glucosidase [4]; C 7.5 μg/mL,0.0489 ± 0.0009 ΔOD/min
same,Vmax,α-glucosidase [4]; C 10 μg/mL,0.0377 ± 0.0009 ΔOD/min
same,type of inhibition of α-glucosidase,α-glucosidase [4],non-competitive inhibition
same,reversibility of inhibition of α-glucosidase,α-glucosidase [4],reversible inhibition
same,binding constants K,α-glucosidase [5],(3.39 ± 0.03) × 10^5 L·mol^−1
same,quenching mechanism of α-glucosidase fluorescence,α-glucosidase [5],static quenching
same,Kq,α-glucosidase [5]; T 298 K,7.40 ± 0.06 ×10^12 L/mol/s
same,Ksv,α-glucosidase [5]; T 298 K,7.40 ± 0.06 ×10^4 L/mol
same,n (number of binding sites),α-glucosidase [5]; T 298 K,1.29
same,ΔG^0,α-glucosidase [5]; T 298 K,-8.439 ± 0.0239 kcal/mol
same,Kq,α-glucosidase [5]; T 304 K,6.97 ± 0.06 ×10^12 L/mol/s
same,Ksv,α-glucosidase [5]; T 304 K,6.97 ± 0.06 ×10^4 L/mol
same,n (number of binding sites),α-glucosidase [5]; T 304 K,1.23
same,ΔG^0,α-glucosidase [5]; T 304 K,-8.212 ± 0.022 kcal/mol
same,Kq,α-glucosidase [5]; T 310 K,6.69 ± 0.04 ×10^12 L/mol/s
same,Ksv,α-glucosidase [5]; T 310 K,6.69 ± 0.04 ×10^4 L/mol
same,n (number of binding sites),α-glucosidase [5]; T 310 K,1.16
same,ΔG^0,α-glucosidase [5]; T 310 K,-7.844 ± 0.014 kcal/mol
same,ΔH^0,α-glucosidase [5],-23.22 ± 0.022 kcal/mol
same,ΔS^0,α-glucosidase [5],−207.25 ± 0.13 J/mol/k
iron (III) meso-tetra (4-carboxyphenyl) porphyrin chloride [Fe–TCPP],quenching mechanism of α-amylase fluorescence,α-amylase [1],mixed quenching
same,Ka (binding constant),α-amylase [1]; T 298 K,944.30 ± 0.18 ×10^5 L/mol
same,Kq,α-amylase [1]; T 298 K,4.32 ± 0.06 ×10^12 L/mol/s
same,Ksv,α-amylase [1]; T 298 K,4.32 ± 0.06 ×10^4 L/mol
same,n (number of binding sites),α-amylase [1]; T 298 K,1.65
same,ΔG^0,α-amylase [1]; T 298 K,-10.87 ± 0.017 kcal/mol
same,Ka (binding constant),α-amylase [1]; T 304 K,40.38 ± 0.09 ×10^5 L/mol
same,Kq,α-amylase [1]; T 304 K,3.36 ± 0.06 ×10^12 L/mol/s
same,Ksv,α-amylase [1]; T 304 K,3.36 ± 0.06 ×10^4 L/mol
same,n (number of binding sites),α-amylase [1]; T 304 K,1.38
same,ΔG^0,α-amylase [1]; T 304 K,-9.19 ± 0.014 kcal/mol
same,Ka (binding constant),α-amylase [1]; T 310 K,2.13 ± 0.05 ×10^5 L/mol
same,Kq,α-amylase [1]; T 310 K,3.29 ± 0.08 ×10^12 L/mol/s
same,Ksv,α-amylase [1]; T 310 K,3.29 ± 0.08 ×10^4 L/mol
same,n (number of binding sites),α-amylase [1]; T 310 K,1.05
same,ΔG^0,α-amylase [1]; T 310 K,-7.557 ± 0.019 kcal/mol
same,ΔH^0,α-amylase [1],-93.248 ± 0.0406 kcal/mol
same,ΔS^0,α-amylase [1],−1156.68 ± 0.13 J/mol/k
same,Peak 1 Fluorescence Intensity,α-amylase [2],270.8
same,Peak 2 Fluorescence Intensity,α-amylase [2],28.26
same,Random Coil,α-amylase [3],22.59 ± 0.03%
same,α-Helix,α-amylase [3],21.77 ± 0.07%
same,β-Antiparallel,α-amylase [3],8.76 ± 0.02%
same,β-Sheet,α-amylase [3],12.86 ± 0.04%
same,β-Turn,α-amylase [3],34.02 ± 0.08%
same,Km,α-glucosidase [4],2.6958 ± 0.0821 µg/mL and 3.3979 ± 0.1076 µg/mL and 3.9231 ± 0.1098 µg/mL and 4.1566 ± 0.0981 µg/mL and 4.3847 ± 0.0694 µg/mL
same,Vmax,α-glucosidase [4]; C 16 μg/mL,0.0771 ± 0.0023 ΔOD/min
same,Vmax,α-glucosidase [4]; C 32 μg/mL,0.0601 ± 0.0019 ΔOD/min
same,Vmax,α-glucosidase [4]; C 48 μg/mL,0.0502 ± 0.0014 ΔOD/min
same,Vmax,α-glucosidase [4]; C 64 μg/mL,0.0416 ± 0.0010 ΔOD/min
same,Vmax,α-glucosidase [4]; C 80 μg/mL,0.0361 ± 0.0006 ΔOD/min
same,type of inhibition of α-glucosidase,α-glucosidase [4],mixed type
same,reversibility of inhibition of α-glucosidase,α-glucosidase [4],reversible inhibition
same,Kis,α-glucosidase [4]; enzyme–substrate complex inhibition constant,40.4085 ± 0.1084 µg/mL
same,Ki,α-glucosidase [4]; free enzyme inhibition constant,9.8917 ± 0.0514 µg/mL
same,binding constants K,α-glucosidase [5],(1.02 ± 0.02) × 10^5 L·mol^−1
same,quenching mechanism of α-glucosidase fluorescence,α-glucosidase [5],static quenching
same,Ka (binding constant),α-glucosidase [5]; T 298 K,1.65 ± 0.03 ×10^5 L/mol
same,Kq,α-glucosidase [5]; T 298 K,14.52 ± 0.07 ×10^12 L/mol/s
same,Ksv,α-glucosidase [5]; T 298 K,14.52 ± 0.07 ×10^4 L/mol
same,n (number of binding sites),α-glucosidase [5]; T 298 K,1.01
same,ΔG^0,α-glucosidase [5]; T 298 K,-7.113 ± 0.012 kcal/mol
same,Ka (binding constant),α-glucosidase [5]; T 304 K,1.26 ± 0.03 ×10^5 L/mol
same,Kq,α-glucosidase [5]; T 304 K,13.18 ± 0.05 ×10^12 L/mol/s
same,Ksv,α-glucosidase [5]; T 304 K,13.18 ± 0.05 ×10^4 L/mol
same,n (number of binding sites),α-glucosidase [5]; T 304 K,1.00
same,ΔG^0,α-glucosidase [5]; T 304 K,-7.094 ± 0.017 kcal/mol
same,Ka (binding constant),α-glucosidase [5]; T 310 K,1.02 ± 0.02 ×10^5 L/mol
same,Kq,α-glucosidase [5]; T 310 K,12.20 ± 0.07 ×10^12 L/mol/s
same,Ksv,α-glucosidase [5]; T 310 K,12.20 ± 0.07 ×10^4 L/mol
same,n (number of binding sites),α-glucosidase [5]; T 310 K,0.98
same,ΔG^0,α-glucosidase [5]; T 310 K,-7.103 ± 0.014 kcal/mol
same,ΔH^0,α-glucosidase [5],-7.385 ± 0.014 kcal/mol
same,ΔS^0,α-glucosidase [5],−3.88 ± 0.01 J/mol/k
